Experiments:
CCR2 = target: T1, CCR2 (Homo sapiens, UniProt P41597); experiment: MCP-1 Receptor Binding Assay in THP-1 Cells; settings: 0.5 nM 125I labeled MCP-1, 2 hours at 30° C., read-out: Inhibition of MCP-1 Binding IC50, CCR2 Binding
T1 construct: host or cells: THP-1 (human monocytic cell line), whole cells
Protocol: Compounds of the invention were subjected to various representative biological tests. […] MCP-1 Receptor Binding Assay in THP-1 Cells
Human monocytic cell line THP-1 cells were obtained from American Type Culture Collection (Manassas, Va., USA). […] The cell density was maintained […].
1 μM cold MCP-1 was used for nonspecific binding.

[1] = tested on: thioglycollate-induced peritonitis; experiment: Thioglycollate-induced peritonitis in mice; assay type: in vivo; settings: 10 mpk, p.o. bid; 72-hour time point; leukocytes in peritoneal lavage vs vehicle
Excerpt: (§1) Mouse CCR2 knock-out/human CCR2 knock-in mice were generated using targeted 129Sv/Evbrd embryonic stem cell clones injected into C57BL/6 mice. Expression of the hCCR2 transcript was confirmed by quantitative reverse transcription-polymerase chain reaction performed on spleen and blood total RNA from homozygous hCCR2 knock-in mice. Backcrossing into C57BL/6 genetic background continued to the eighth generation. Transgenic mice were housed in a specific-pathogen-free, temperature-controlled facility that maintained a 12-hour light/12-hour dark cycle. Mice had free access to water and food. Experimental procedures were carried out in accordance with institutional standards for animal care and were approved by the institute's animal care and use committee.
Animals were orally dosed with vehicle or CCR2 antagonists at 3, 10, 30 and 100 mg/kg bid). One hour later, the animals were intraperiponeally injected with sterile thioglycollate (25 mL/kg, ip, Sigma) for induction of peritonitis. Animals were orally treated twice daily with vehicle or CCR2 antagonists. At 72-hour time point, perinoteal cavities were lavaged with 10 mL of sterile saline. […] Percent inhibition of the thioglycollate-induced peritonitis was calculated by comparing the change in number of leukocytes of CCR2 antagonist treated mice to the vehicle-treated mice.

cell migration = experiment: Murine in vivo cell migration assay; parameters: species or system mice; settings: 10 mpk, P.O. bid; human MCP-1 on small bowel serosa; 24 hours
Excerpt: as §1
Animals were orally dosed with vehicle or CCR2 antagonists at 3, 10 and 30 mg/kg bid. Animals underwent anesthesia and laparotomy. A distal loop of small bowel (5 cm in length) was gently eventrated onto moist sterile gauze. Synthetic human MCP-1 ([…] sterile PBS) or PBS alone was administered drop-wise onto the serosa of the eventrated loop. A suture knot was placed into the mesentery to mark the terminus of the treated area. Twenty-four hours later, the animal was sacrificed and the segment of bowel plus the adjacent region was removed. The tissue was opened along the mesenteric border, pinned flat and the mucosa removed. […]

[2] = tested on: total BAL leukocyte count (and eosinophil count); experiment: Mouse model of allergic asthma; assay type: in vivo; settings: 10 mpk, p.o. bid; OVA-sensitized mice; BAL on day 21
Excerpt: as §1, with “Experimental procedures were carried out in accordance with institutional standards for animal care and were approved by the institute's animal care and use committee.” left out
Animals were sensitized by intraperitoneal injection of 10 μg chicken egg albumin (OVA) absorbed to 1 mg Imject® in 100 μL phosphate-buffered saline (PBS) on days 0 and 5. […] On day 21, 2 hours post the last dose of CCR2 compounds, bronchial reactivity to aerosolized methacholine was measured using a Buxco whole body plethysmograpgh. […] Bronchoalveolar lavage fluid was collected (1 mL) and total cells counted. The numbers of eosinophils, lymphocytes, monocytes and neutrophils were determined using cytospin analysis after Giemsa staining (Hema Tek 2000). Percent inhibition of total BAL leukocyte count (and eosinophil count) was calculated by comparing the compound-treated mice with vehicle-treated mice. […]

[3] = tested on: MCP-1-induced monocyte recruitment to airway; experiment: MCP-1-induced monocyte recruitment to airway of mice; assay type: in vivo; settings: 10 mpk, p.o. bid; 4 μg MCP-1 intranasally; after 48 h
Excerpt: as §1
Animals were orally treated with vehicle or CCR2 antagonists at 3, 10, and 30 mg/kg po bid). One hour later, the animals were intranasally dosed with 4 μg of MCP-1 in sterile saline. The animals were orally treated twice daily with vehicle or CCR2 antagonists. After 48 h, mice were euthanized by intraperitoneal injection of anesthesia solution (Sleepaway-Sodium pentobarbital). […] Percent inhibition was calculated by comparing the change in number of total leukocyte counts (including monocytes/macrophages and lymphocytes) of compound-treated mice to the vehicle-treated mice. […]

[4] = High-fat diet induced obesity and insulin resistance in mice; assay type: in vivo; settings: 10 mpk, p.o. bid; high-fat diet obese mice; 40 days treatment
Excerpt: as §1, with “Experimental procedures were carried out in accordance with institutional standards for animal care and were approved by the institute's animal care and use committee.” left out
Obesity was induced by a high-fat diet that derived approximately 60% calories from lipids (D-12492; Research Diets Inc.) in animals for 10-24 weeks at age of 7 weeks. […] Body weight and food intake and fasting blood glucose levels were monitored. Body mass was determined by a NMR analyzer (Burker MiniSpec). […] After an intraperitoneal bolus injection of recombinant human insulin (1.5 U/kg), blood glucose concentrations were measured using a Glucometer before and 15, 30, 45, 60, 90 and 120 minutes after injection. […] Blood glucose concentrations were measured before and after 15, 30, 60, 90, 120 minutes after an oral dose of glucose dissolved in water (1 g/kg). Energy expenditure analysis was monitored by a complete laboratory animal monitor system. […]

T1 sequence (P41597 whole entry): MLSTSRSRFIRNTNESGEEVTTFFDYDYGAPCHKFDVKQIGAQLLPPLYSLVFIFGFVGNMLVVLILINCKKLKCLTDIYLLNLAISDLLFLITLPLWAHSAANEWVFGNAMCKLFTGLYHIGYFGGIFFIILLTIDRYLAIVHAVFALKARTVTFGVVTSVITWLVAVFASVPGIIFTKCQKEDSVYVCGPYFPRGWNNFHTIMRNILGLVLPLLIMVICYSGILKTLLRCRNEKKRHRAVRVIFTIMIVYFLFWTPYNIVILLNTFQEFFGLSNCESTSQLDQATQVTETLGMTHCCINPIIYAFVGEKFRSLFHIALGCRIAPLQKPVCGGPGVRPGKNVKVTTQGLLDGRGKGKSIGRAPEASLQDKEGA

Row | SMILES | IC50 (CCR2) [nM] | also measured
1 | COc1ccc(C2(O)CCC(N3CC(NC(=O)CNC(=O)c4cccc(Cl)c4)C3)CC2)cn1 (stereo not drawn) [Example 24, 3-Chloro-N-({1-[4-hydroxy-4-(6-methoxy-pyridin-3-yl)-cyclohexyl]-azetidin-3-ylcarbamoyl}-methyl)-benzamide] | 1600 | –
2 | O=C(CNC(=O)c1cccc(C(F)(F)F)c1)NC1CN(C2CCC(O)(c3cncs3)CC2)C1 (stereo not drawn) [Example 40, N-{[1-(4-Hydroxy-4-thiazol-5-yl-cyclohexyl)-azetidin-3-ylcarbamoyl]-methyl}-3-trifluoromethyl-benzamide] | – | inhibition of thioglycollate-induced peritonitis [1]: > 50%; blocking cell migration (efficacious if the inhibition of cell migration reaches 30% compared with vehicle-treated animals) (cell migration): efficacious; reduction of cell count (efficacious if the inhibition reaches 30%) [2]: efficacious; percent inhibition of total leukocyte counts in BAL [3]: > 50%; reduce body weight (percent of weight loss vs vehicle-treated mice) [4]: > 8%
3 | O=C(CNC(=O)c1cccc(C(F)(F)F)c1)NC1CN(C2CCC(O)(c3cnc(O)s3)CC2)C1 (stereo not drawn) [Example 48, N-({1-[4-Hydroxy-4-(2-hydroxy-thiazol-5-yl)-cyclohexyl]-azetidin-3-ylcarbamoyl}-methyl)-3-trifluoromethyl-benzamide] | 560 | –
4 | Nc1ncc(C2(O)CCC(N3CC(NC(=O)CNC(=O)c4cccc(C(F)(F)F)c4)C3)CC2)s1 (stereo not drawn) [Example 49, N-({1-[4-(2-Amino-thiazol-5-yl)-4-hydroxy-cyclohexyl]-azetidin-3-ylcarbamoyl}-methyl)-3-trifluoromethyl-benzamide] | 260 | –
5 | CN(C)c1ncc(C2(O)CCC(N3CC(NC(=O)CNC(=O)c4cccc(C(F)(F)F)c4)C3)CC2)s1 (stereo not drawn) [Example 50, N-({1-[4-(2-Dimethylamino-thiazol-5-yl)-4-hydroxy-cyclohexyl]-azetidin-3-ylcarbamoyl}-methyl)-3-trifluoromethyl-benzamide] | 560 | –
6 | O=C(CNC(=O)c1cccc(C(F)(F)F)c1)NC1CN(C2CCC(O)(c3cnc(N4CCCC4)s3)CC2)C1 (stereo not drawn) [Example 51, N-({1-[4-Hydroxy-4-(2-pyrrolidin-1-yl-thiazol-5-yl)-cyclohexyl]-azetidin-3-ylcarbamoyl}-methyl)-3-trifluoromethyl-benzamide] | 3300 | –
7 | COc1ncc(C2(O)CCC(N3CC(NC(=O)CNC(=O)c4cccc(C(F)(F)F)c4)C3)CC2)s1 (stereo not drawn) [Example 52, N-({1-[4-Hydroxy-4-(2-methoxy-thiazol-5-yl)-cyclohexyl]-azetidin-3-ylcarbamoyl}-methyl)-3-trifluoromethyl-benzamide] | 73 | –
8 | CC(C)(C)Oc1ncc(C2(O)CCC(N3CC(NC(=O)CNC(=O)c4cccc(C(F)(F)F)c4)C3)CC2)s1 (stereo not drawn) [Example 54, N-({1-[4-(2-tert-Butoxy-thiazol-5-yl)-4-hydroxy-cyclohexyl]-azetidin-3-ylcarbamoyl}-methyl)-3-trifluoromethyl-benzamide] | 280 | –
9 | N#CNc1ncc(C2(O)CCC(N3CC(NC(=O)CNC(=O)c4cccc(C(F)(F)F)c4)C3)CC2)s1 (stereo not drawn) [Example 55, N-({1-[4-(2-Cyanoamino-thiazol-5-yl)-4-hydroxy-cyclohexyl]-azetidin-3-ylcarbamoyl}-methyl)-3-trifluoromethyl-benzamide] | 1200 | –
10 | CN(C)Cc1ncc(C2(O)CCC(N3CC(NC(=O)CNC(=O)c4cccc(C(F)(F)F)c4)C3)CC2)s1 (stereo not drawn) [Example 56, N-({1-[4-(2-Dimethylaminomethyl-thiazol-5-yl)-4-hydroxy-cyclohexyl]-azetidin-3-ylcarbamoyl}-methyl)-3-trifluoromethyl-benzamide] | 310 | –

Further lines, with some results ahead:

Row | IC50 (CCR2) [nM] | SMILES | also measured
11 | 230 | O=C(CNC(=O)c1cccc(C(F)(F)F)c1)NC1CN(C2CCC(O)(c3cc(Br)cs3)CC2)C1 (stereo not drawn) [Example 60, N-({1-[4-(4-Bromo-thiophen-2-yl)-4-hydroxy-cyclohexyl]-azetidin-3-ylcarbamoyl}-methyl)-3-trifluoromethyl-benzamide] | –
12 | 1000 | O=C(CNC(=O)c1cccc(C(F)(F)F)c1)NC1CN(C2CCC(O)(c3nc4ccccc4o3)CC2)C1 (stereo not drawn) [Example 63, N-{[1-(4-Benzooxazol-2-yl-4-hydroxy-cyclohexyl)-azetidin-3-ylcarbamoyl]-methyl}-3-trifluoromethyl-benzamide] | –
13 | 70 | O=C(CNC(=O)c1cc(F)cc(C(F)(F)F)c1)NC1CN(C2CCC(O)(c3cncs3)CC2)C1 (stereo not drawn) [Example 65, 3-Fluoro-N-{[1-(4-hydroxy-4-thiazol-5-yl-cyclohexyl)-azetidin-3-ylcarbamoyl]-methyl}-5-trifluoromethyl-benzamide] | –
14 | 500 | O=C(CNC(=O)c1cc(C(F)(F)F)ccc1C(F)(F)F)NC1CN(C2CCC(O)(c3nccs3)CC2)C1 (stereo not drawn) [Example 68, N-{[1-(4-Hydroxy-4-thiazol-2-yl-cyclohexyl)-azetidin-3-ylcarbamoyl]-methyl}-2,5-bis-trifluoromethyl-benzamide] | –

Reference: US8450304B2, “4-azetidinyl-1-heteroaryl-cyclohexanol antagonists of CCR2” (Janssen Pharmaceutica N.V., priority 2008, dated 2013)
